Laboratory results reported in ChEMBL document CHEMBL1201862, “PubChem BioAssay data set” (2004).
Several values for one entry are separate records, joined by “and”; a condition that tells them apart may be missing. Equal values may be shown once. Activity calls are given as the source filed them.

Experiments:
[1] = THP-1 cell cytotoxicity, dose response, cytotoxicity control for Vif-APOBEC3G degradation inhibitor project, THP-1 cells (AID 1117359); assay type: functional; settings: Human immunodeficiency virus 1, THP-1
[2] = target: Beta-2 adrenergic receptor (Homo sapiens, UniProt P07550); assay: beta2AR agonists driving receptor internalization, dose response, cell-based, FAP fluorogen, flow cytometry, cherry pick 1 (AID 588763); assay type: functional
Sequence of Beta-2 adrenergic receptor (P07550 whole entry): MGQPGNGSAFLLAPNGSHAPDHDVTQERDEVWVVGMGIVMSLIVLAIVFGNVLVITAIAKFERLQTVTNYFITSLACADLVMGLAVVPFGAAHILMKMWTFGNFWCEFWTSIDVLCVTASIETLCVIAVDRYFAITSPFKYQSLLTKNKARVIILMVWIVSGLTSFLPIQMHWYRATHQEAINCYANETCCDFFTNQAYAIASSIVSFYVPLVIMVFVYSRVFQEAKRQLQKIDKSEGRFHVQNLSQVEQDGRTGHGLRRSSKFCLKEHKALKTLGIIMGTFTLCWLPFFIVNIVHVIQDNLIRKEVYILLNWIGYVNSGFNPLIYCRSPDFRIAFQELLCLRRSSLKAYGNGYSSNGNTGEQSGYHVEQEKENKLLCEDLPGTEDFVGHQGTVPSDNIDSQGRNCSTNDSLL

[3] = CEM21 cell cytotoxicity, dose response, cytotoxicity control, plate reader, dry powder (AID 687026); assay type: functional, cell-based
[4] = inhibitors of HIV Env-driven cell fusion, dose response, cherry-pick (AID 652057); assay type: functional, cell-based
[5] = off-target signal loss in HeLa-CEM21 co-culture – HeLa F-luc CTL cells, cherry-picked, counter-screen for HIV-1 Env fusion inhibitor project, dose response (AID 652040); assay type: functional, cell-based;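 further: potency for signal decrease marking cytotoxic or nonspecific inhibition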
[6] = ZM109 Env clade C HIV-1 fusion inhibitors, dose response, HeLa effector, CEM target cells, luciferase, cherry-pick (AID 652058); assay type: functional, cell-based
[7] = inhibitors of clade B AD8 Env fusion, dose response, cell-based, cherry-pick (AID 652062); assay type: functional;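 further: luciferase signal from cell-cell fusion driven by HIV-1 clade B AD8 Env; potency is for inhibitors of fusion seen as a drop in luminescence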
[8] = target: T1, Protein skinhead-1 (Caenorhabditis elegans, UniProt P34707); assay type: functional
T1 sequence (P34707 whole entry): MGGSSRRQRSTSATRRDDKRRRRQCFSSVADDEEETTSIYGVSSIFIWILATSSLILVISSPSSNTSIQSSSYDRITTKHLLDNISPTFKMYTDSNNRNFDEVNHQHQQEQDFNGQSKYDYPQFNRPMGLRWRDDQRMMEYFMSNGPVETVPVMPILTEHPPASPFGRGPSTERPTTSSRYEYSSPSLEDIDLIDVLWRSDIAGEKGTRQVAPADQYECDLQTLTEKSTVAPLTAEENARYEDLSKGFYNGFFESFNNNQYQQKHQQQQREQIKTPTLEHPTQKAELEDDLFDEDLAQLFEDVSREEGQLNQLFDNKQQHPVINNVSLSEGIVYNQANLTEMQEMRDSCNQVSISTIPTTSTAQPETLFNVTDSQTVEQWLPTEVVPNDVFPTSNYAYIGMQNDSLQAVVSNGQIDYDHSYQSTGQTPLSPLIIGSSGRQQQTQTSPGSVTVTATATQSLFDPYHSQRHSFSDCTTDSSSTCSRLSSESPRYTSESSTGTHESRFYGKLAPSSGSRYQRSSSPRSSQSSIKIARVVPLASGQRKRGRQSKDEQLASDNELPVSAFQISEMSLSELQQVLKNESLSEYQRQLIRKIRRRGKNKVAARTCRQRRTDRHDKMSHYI

[9] = target: T2, Oxysterols receptor LXR-beta (Homo sapiens, UniProt P55055); assay type: functional, cell-based;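 further: Cell-based luminescence dose-response assay of agonist activity at LXR, run as a confirmatory counterscreen to a daf-12 agonist screen; HEK293 cells with Gal4-LXR fusion and GAL4-driven luciferase reporter; agonist potency from rising luciferase signal of a Gal4-LXR reporter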
T2 sequence (P55055 whole entry): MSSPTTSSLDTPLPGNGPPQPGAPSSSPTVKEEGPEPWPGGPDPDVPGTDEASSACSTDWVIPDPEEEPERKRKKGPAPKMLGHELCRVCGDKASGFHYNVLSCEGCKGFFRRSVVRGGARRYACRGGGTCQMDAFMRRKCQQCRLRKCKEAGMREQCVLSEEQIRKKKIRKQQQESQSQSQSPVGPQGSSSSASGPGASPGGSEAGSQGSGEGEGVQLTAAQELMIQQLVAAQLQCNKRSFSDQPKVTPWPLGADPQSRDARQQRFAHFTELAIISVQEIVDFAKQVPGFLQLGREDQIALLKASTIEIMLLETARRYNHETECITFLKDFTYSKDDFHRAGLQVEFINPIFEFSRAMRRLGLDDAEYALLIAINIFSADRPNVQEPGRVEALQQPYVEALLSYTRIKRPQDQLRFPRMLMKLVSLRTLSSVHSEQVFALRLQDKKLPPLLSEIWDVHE

[10] = cells
[11] = target: T3, Bcl-2-related protein A1 (Mus musculus, UniProt Q07440); assay: Bfl-1 inhibitors blocking BH3 peptide binding, confirmation, biochemical, TR-FRET, mouse Bfl-1 (AID 621);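 further: TR-FRET binding of GST-Bfl-1 to FITC-labelled Bid peptide via terbium antibody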
T3 sequence (Q07440 whole entry): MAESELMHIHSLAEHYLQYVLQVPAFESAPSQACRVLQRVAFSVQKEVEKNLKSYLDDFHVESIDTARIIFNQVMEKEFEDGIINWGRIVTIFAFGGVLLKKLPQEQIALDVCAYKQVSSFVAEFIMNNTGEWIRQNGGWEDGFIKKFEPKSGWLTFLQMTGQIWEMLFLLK

[12] = target: Nonstructural protein 1 (Influenza A virus, UniProt Q194T2); assay type: functional, Influenza A virus (A/California/07/2009(H1N1))
Sequence of Nonstructural protein 1 (Q194T2 whole entry): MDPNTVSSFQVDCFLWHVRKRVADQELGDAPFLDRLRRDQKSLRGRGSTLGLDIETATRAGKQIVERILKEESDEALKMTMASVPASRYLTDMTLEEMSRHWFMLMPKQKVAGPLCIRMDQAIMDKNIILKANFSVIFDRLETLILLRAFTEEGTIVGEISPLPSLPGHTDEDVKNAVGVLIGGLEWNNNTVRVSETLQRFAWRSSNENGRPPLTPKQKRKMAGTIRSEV

[13] = inhibitors of intracellular T. cruzi replication, confirmation, NIH3T3 host cells, beta-gal luminescence (AID 2044); assay type: functional, cell-based;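 further: intracellular parasites grown in NIH/3T3 mouse fibroblasts as host cells; luminescent beta-galactosidase reporter signal from transgenic T. cruzi replicating inside host cells; inhibitors lower the luminescence signal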
[14] = target: T3, Bcl-2-related protein A1; assay: Bfl-1 inhibitors, primary screen, biochemical, fluorescence polarization, FITC-Bid, mouse (AID 432)
[15] = inhibitors of firefly luciferase expression or activity, dose response, H4 neuroglioma cells, luminescence (AID 1990); assay type: functional, cell-based
[16] = inhibitors of SNCA 5'UTR-driven reporter translation, confirmation, H4 neuroglioma cells, luminescence (AID 1988); assay type: functional, cell-based
[17] = cytotoxicity toward NIH3T3 fibroblasts, dose response, counter-screen, cell-based, ATP luminescence, mouse fibroblasts (AID 2010); assay type: functional;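 further: cells exposed to compound for about 90 hours before reading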
[18] = tested on: INS1; assay: beta cell apoptosis inhibitors, cytokine rescue, dose response, luminescence, retest (AID 449756); assay type: functional, cell-based; settings: Rattus norvegicus;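 further: cell death triggered by IL-1 beta plus TNF-alpha plus IFN-gamma mixture; protective hits raise ATP signal compared with cytokine alone wells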
[19] = Luminescence Cell-Based Dose Response HTS to Identify Inhibitors of 5'UTR Stem-Loop Driven Prion Protein mRNA Translation in H4 Neuroglioblastoma Cells. [Related pubchem assays: 1827 (Project Summary), 1813 (Primary HTS)]; assay type: functional
[20] = target: Transthyretin (Homo sapiens, UniProt P02766); assay: Luminescence-based cell-based high throughput dose response assay to identify activators of Transthyretin (TTR) transcription.; assay type: functional
[21] = target: Metabotropic glutamate receptor 5 (Rattus norvegicus, UniProt P31424); assay: Identification of a glycine sulfonamide based non-MPEP site positive allosteric potentiator (PAM) of mGlu5 (calcium_assay).; assay type: functional
Sequence of Metabotropic glutamate receptor 5 (P31424 whole entry): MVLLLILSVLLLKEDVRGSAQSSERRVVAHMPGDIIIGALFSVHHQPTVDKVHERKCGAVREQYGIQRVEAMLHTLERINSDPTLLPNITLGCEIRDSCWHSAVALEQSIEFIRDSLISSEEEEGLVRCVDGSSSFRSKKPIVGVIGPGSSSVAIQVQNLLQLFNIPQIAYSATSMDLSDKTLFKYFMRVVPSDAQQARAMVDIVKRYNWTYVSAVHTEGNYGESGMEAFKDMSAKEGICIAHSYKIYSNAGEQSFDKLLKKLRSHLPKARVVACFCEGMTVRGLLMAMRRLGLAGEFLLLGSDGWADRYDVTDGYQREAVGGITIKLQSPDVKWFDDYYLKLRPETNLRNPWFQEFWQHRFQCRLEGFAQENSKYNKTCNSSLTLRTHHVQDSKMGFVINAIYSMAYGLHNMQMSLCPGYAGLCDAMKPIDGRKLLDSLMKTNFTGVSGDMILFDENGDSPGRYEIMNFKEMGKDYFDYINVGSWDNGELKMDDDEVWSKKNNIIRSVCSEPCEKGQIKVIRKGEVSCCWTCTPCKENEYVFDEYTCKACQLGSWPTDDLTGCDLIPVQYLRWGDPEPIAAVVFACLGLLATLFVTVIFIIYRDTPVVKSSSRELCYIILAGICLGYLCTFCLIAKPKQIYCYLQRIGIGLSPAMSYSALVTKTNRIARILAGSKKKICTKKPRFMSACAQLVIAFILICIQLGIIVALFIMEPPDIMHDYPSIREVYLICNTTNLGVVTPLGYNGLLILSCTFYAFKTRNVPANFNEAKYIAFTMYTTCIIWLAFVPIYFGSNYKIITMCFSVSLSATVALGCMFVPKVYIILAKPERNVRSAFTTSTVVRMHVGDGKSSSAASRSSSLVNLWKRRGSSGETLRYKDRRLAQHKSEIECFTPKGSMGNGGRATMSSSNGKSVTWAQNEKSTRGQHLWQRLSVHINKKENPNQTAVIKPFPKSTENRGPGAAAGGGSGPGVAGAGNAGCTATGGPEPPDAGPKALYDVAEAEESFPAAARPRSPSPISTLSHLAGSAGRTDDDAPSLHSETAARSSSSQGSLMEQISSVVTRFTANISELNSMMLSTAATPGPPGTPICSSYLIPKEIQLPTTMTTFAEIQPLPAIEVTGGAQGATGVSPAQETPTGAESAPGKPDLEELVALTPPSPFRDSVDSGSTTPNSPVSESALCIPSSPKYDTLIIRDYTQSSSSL

[22] = PAX5 activity inhibitors, dose response, selectivity assay for PAX8 inhibitor project, cell-based, plate reader, dry powder samples (AID 743047); assay type: functional;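 further: HEK293 cells carrying a Pax5 driven CD19 promoter luciferase reporter; potency of inhibitors that lower reporter luminescence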
[23] = cytotoxicity in COV362 ovarian cancer cells, dose response, cytotoxicity control for PAX8 inhibitor project, cell-based, plate reader, dry powder, SA12 (AID 743144); assay type: functional
[24] = cytotoxicity in OV-90 ovarian cancer cells, dose response, PAX8 inhibitor project, cell-based, plate reader, dry powder, SA8 (AID 743149); assay type: functional
[25] = target: Paired box protein Pax-8 (Homo sapiens, UniProt Q06710); assay: inhibitors of PAX8-driven TPO luciferase reporter, dose response, RMG-I cells, cherry-pick (AID 687027); assay type: functional, cell-based;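 further: luciferase reporter driven by Pax8 target thyroperoxidase promoter measured by SteadyGlo luminescence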
Sequence of Paired box protein Pax-8 (Q06710 whole entry): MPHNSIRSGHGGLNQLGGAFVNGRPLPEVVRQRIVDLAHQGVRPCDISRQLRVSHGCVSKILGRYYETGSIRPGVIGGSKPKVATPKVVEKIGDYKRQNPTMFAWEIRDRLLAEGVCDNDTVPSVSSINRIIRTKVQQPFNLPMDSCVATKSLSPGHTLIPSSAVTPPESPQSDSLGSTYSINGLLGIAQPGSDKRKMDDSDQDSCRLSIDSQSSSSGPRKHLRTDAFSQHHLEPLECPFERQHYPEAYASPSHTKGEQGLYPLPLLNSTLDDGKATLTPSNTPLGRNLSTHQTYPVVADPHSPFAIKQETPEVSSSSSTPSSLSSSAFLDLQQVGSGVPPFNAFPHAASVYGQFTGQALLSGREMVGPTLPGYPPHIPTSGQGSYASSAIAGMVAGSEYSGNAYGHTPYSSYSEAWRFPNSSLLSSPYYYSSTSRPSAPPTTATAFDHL

[26] = cytotoxicity dependent on PAX8, dose response, cell-based, plate reader, dry powder (AID 743049); assay type: functional
[27] = P. falciparum Dd2 growth inhibitors, dose response, SYBR Green, cherry-picked samples (AID 1159567); assay type: functional, cell-based
[28] = PAX2 cell-based inhibition, dose response, selectivity assay for PAX8 inhibitor project, plate reader, dry powder samples (AID 743048); assay type: functional;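 further: HEK293 cells carrying a WT1 promoter luciferase reporter driven by expressed Pax2; potency is for inhibition of Pax2 driven reporter signal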
[29] = tested on: HEK293; assay: HEK293T cell cytotoxicity, dose response, cytotoxicity control, ATP luminescence, cherry-pick samples (AID 687005); assay type: functional, cell-based; settings: Homo sapiens;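 further: cells exposed to compound for 48 hours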
[30] = HEK293 Cytotoxicity Assay Measured in Cell-Based System Using Plate Reader - 7071-01_Inhibitor_Dose_CherryPick_Activity_Set2.; assay type: functional
[31] = cytotoxicity in OVCAR8 ovarian cancer cells, dose response, PAX8 project, cell-based, plate reader, dry powder samples (AID 743197); assay type: functional; settings: OVCAR-8
[32] = IGROV1 ovarian cancer cell cytotoxicity, dose response, PAX8 inhibitor project, plate reader, dry powder samples (AID 743043); assay type: functional, cell-based; settings: IGROV-1
[33] = NIH:OVCAR-3 ovarian cancer cell cytotoxicity, dose response, PAX8 inhibitor project, plate reader, dry powder samples (AID 743044); assay type: functional, cell-based
[34] = A2780 ovarian cancer cell cytotoxicity, dose response, cytotoxicity control, plate reader, dry powder samples (AID 743046); assay type: functional, cell-based
[35] = IOSE-T80 ovarian epithelial cell cytotoxicity, dose response, cytotoxicity control for PAX8 inhibitor project, plate reader, dry powder samples (AID 743045); assay type: functional, cell-based

SMILES: CC(C)Oc1ccc(C(=O)N(Cc2ccco2)C2CCS(=O)(=O)C2)cc1 (stereo unspecified)
- CC50 [1]: > 40 µM (active)

SMILES: O=C(CCc1ccc(S(=O)(=O)N2CCOCC2)cc1)Nc1nc(COc2ccccc2)cs1
- EC50 [2]: 1.4 µM (active)
- AC50 [3]: > 70 µM (inactive) and 50.5 µM (active)
- AC50 [4]: 1.65 µM (active)
- AC50 [5]: > 70 µM (inactive)
- AC50 [6]: 1.07 µM (active)
- AC50 [7]: 4.58 µM (active)

SMILES: Fc1ccccc1-c1nc(-c2ccc(Br)o2)no1
- IC50 [8]: > 100 µM (inactive)
- EC50 [9]: > 67.6 µM (inactive)
- EC50 [10]: > 67.6 µM (inactive)

SMILES: Nc1ccc(N2CCCCC2)cc1N1CCCCC1
- IC50 [11]: > 100 µM (not active)
- IC50 [12]: 16.1 µM (active)
- EC50 [13]: 0.197 µM (active)
- IC50 [14]: > 100 µM (not active)
- EC50 [15]: > 120 µM (not active)
- EC50 [16]: > 120 µM (not active)
- EC50 [17]: > 60 µM (not active)
- AC50 [18]: 12.9 µM (active)
- EC50 [19]: > 120 µM (not active)

SMILES: Cn1ncc(Cl)c1C(=O)N1CCc2ccccc21
- EC50 [20]: > 167 µM (inactive)

SMILES: O=S(=O)(c1ccc(C#Cc2cccc(F)c2)cc1)N1CCOCC1
- EC50 [21]: 0.427 µM

SMILES: N#C[C@H]1[C@@H](c2ccc(C#CC3CCCCC3)cc2)[C@@H](CO)N1S(=O)(=O)c1ccccc1
- AC50 [22]: 19.3 µM (active)
- AC50 [23]: 61.4 µM (active)
- AC50 [24]: 32.3 µM (active)
- AC50 [25]: 8.09 µM (active)
- AC50 [26]: 18.7 µM (active)
- AC50 [27]: 4.94 µM (active)
- AC50 [28]: 19 µM (active)

SMILES: Cc1noc(C)c1NC(=O)N(C)C[C@@H]1Oc2ccc(NC(=O)NC(C)C)cc2CC(=O)N([C@H](C)CO)C[C@H]1C
- AC50 [29]: 1.61 µM (active)
- AC50 [30]: 1.61 µM (active)

SMILES: Cc1ccc(S(=O)(=O)N(C)C[C@@H]2Oc3ccc(NC(=O)Nc4ccc(C(F)(F)F)cc4)cc3CC(=O)N([C@H](C)CO)C[C@@H]2C)cc1
- AC50 [31]: 14.3 µM (active)
- AC50 [32]: 10.1 µM (active)
- AC50 [25]: 3.06 µM (active)
- AC50 [33]: 3.11 µM (active)
- AC50 [34]: 20.7 µM (active)
- AC50 [35]: 9.76 µM (active)
